# Laboratory results published in ChEMBL document CHEMBL4610027, “Identification of Mycobacterium tuberculosis CtpF as a target for designing new antituberculous compounds” (Bioorg Med Chem, 2020).
# pIC50: −log10 of the molar value. Active and inactive are the calls of the source. The calls are words filed in the database; no cut-off is given here.
# How the values were obtained:
# [1] = system: Mycobacterium tuberculosis; experiment: Antimycobacterial activity against Mycobacterium tuberculosis H37Rv incubated for 6 days by resazurin dye-based colorimetric method; format: functional; conditions: 144 h
# [2] = Octanol/water partition coefficient, log P of the compound; format: physicochemical
# [3] = system: Listeria monocytogenes; experiment: Inhibition of Listeria monocytogenes Ca2+ ATPase
# [4] = (§1) Inhibition of calcium stimulated Mycobacterium tuberculosis H37Ra CtpF ATPase activity using Na2ATP as substrate preincubated for 30 mins followed by substrate addition and measured after 30 mins by colorimetric analysis
# [5] = system: Mycobacterium tuberculosis H37Ra; experiment: as §1
# [6] = Inhibition of Bacillus cereus Ca2+ ATPase
# [7] = Hemolytic activity against human erythrocytes assessed as hemolysis at 100 ug/ml incubated for 2 hrs by spectrophotometric analysis; format: ADME, cell-based, Erythrocyte; conditions: read-out: Activity
# [8] = system: Mycobacterium tuberculosis; experiment: Antimycobacterial activity against Mycobacterium tuberculosis H37Rv assessed as inhibition of bacterial growth at MIC incubated for 21 days by colony formation assay relative to control; format: functional
# [9] = Cytotoxicity against mouse MHS cells assessed as cell death at 100 ug/ml incubated for 48 hrs by crystal violet staining based spectrophotometric analysis relative to control
# [10] = system: Mycobacterium tuberculosis H37Ra; experiment: Inhibition of calcium stimulated Mycobacterium tuberculosis H37Ra CtpF ATPase activity at 100 uM using Na2ATP as substrate preincubated for 30 mins followed by substrate addition and measured after 30 mins by colorimetric analysis relative to control
# [11] = system: Mycobacterium tuberculosis; experiment: Potency index, ratio of CPA MIC to test compound MIC for Mycobacterium tuberculosis H37Rv; format: functional
Compound,MIC [1],logP [2],INH [3],pIC50 [4],inhibition [5],pIC50 [6],"hemolysis at 2 h, 100 ug/ml [7]",inhibition (INH) [8],Activity [9],inhibition [8],inhibition [10],Ratio [11]
CC(=O)C1=C(O)[C@@H]2[C@H]3c4c[nH]c5cccc(c45)C[C@H]3C(C)(C)N2C1=O [CYCLOPIAZONIC ACID],100 µg/mL,2.21,918 µM,5.14,Dose-dependent effect,5.40,6.6%,29.9%,50.8%,,,
CCC[C@H](C)NC(=O)CSc1nc2cc(S(=O)(=O)Nc3ccccc3OC)ccc2o1,> 200 µg/mL,4.08,,4.44,,,1%,,39.5%,inactive,,
CCCCC(=O)Nc1cccc(C(=O)NCCCNc2cccnc2)c1,100 µg/mL,2.91,,5.38,,,1.2%,52.9%,21.4%,,46.9%,
C[C@@H](OC(=O)CCCNC1=NS(=O)(=O)c2ccccc21)C(=O)c1c[nH]c2ccccc12,100 µg/mL,1.82,,4.93,,,2.1%,37.3%,31.6%,,,
O=C(CCCC[C@@H]1SC[C@@H]2NC(=O)N[C@@H]21)NCc1cn(-c2ccccc2)nc1-c1ccccc1,100 µg/mL,3.34,,5.39,,,2.4%,29.5%,30%,,48.2%,
COCC(=O)Nc1c(C(=O)OC)n(CCC(C)C)c2ncc(N[C@@H](C)C(C)(C)O)cc12,50 µg/mL,3.32,,5.10,,,0.6%,60.7%,19.8%,,,0.5
NS(=O)(=O)[C@H]1CC=C(CNC(=O)CCCc2c[nH]c3ccccc23)S1,50 µg/mL,1.68,,5.36,,,2%,64%,12.9%,,44.9%,0.5
